# Data reported in patent US12617783B2, “Heterocyclic GLP-1R agonists” (BIOMEA FUSION, INC., priority 2024, dated 2026).
# Entries after “also recorded” stand apart in the source; their conditions may differ. Read-outs that look alike come from different tables or passages of the source.
# How the values were obtained:
# human GLP-1R = target: T1, human GLP-1R (Homo sapiens, UniProt P43220); test: GLP-1R cAMP assay (Example B1a, HTRF, 30 min at room temperature); format: cell-based; details: for EC50 Ratio: potency ratio of stereoisomer pair (less potent / more potent isomer)
# T1 construct: host or cells: HEK293
# T1 sequence (P43220 24-463): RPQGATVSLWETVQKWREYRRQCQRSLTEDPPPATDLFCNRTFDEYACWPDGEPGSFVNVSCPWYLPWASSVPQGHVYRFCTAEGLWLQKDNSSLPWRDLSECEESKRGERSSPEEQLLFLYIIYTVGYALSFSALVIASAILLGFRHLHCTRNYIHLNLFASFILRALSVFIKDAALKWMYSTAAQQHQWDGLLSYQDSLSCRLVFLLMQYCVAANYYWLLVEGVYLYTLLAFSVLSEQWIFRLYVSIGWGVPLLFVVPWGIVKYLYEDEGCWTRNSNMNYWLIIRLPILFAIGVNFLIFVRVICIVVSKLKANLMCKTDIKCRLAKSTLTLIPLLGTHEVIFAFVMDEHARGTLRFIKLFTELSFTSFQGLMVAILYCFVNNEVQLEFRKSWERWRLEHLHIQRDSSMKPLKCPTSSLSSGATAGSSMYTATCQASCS
# Summary of the method: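 Competitive HTRF read-out of cAMP after 30 min room-temperature stimulation, BETP absent, of human GLP-1R-HEK293 cells (1,000/well) in HEPES buffer with 500 μM IBMX and 0.1% BSA. Activation normalised to GLP-1(7-37) positive control. EC50 from 4-parameter non-linear regression.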
# [1] = Pharmacokinetic analysis in male SD rats; format: in vivo; details: for Oral F: 5.0 mg/kg po vs 1.0 mg/kg iv; for AUC(0-inf) / clearance / half-life / Vd / Cmax / Tmax: Sprague-Dawley (SD), rat, plasma; for Vd: read-out: Vdss; for exposure compared with Orforglipron: same doses (iv 1 mg/kg and po 5 mg/kg)
# Method: The rats have free access to food and water. Blood samples were collected pre-dose and 0.083, 0.25, 0.5, 1, 2, 4, 8, 24 hours post dose for i.v. administration group. Blood samples were also collected pre-dose and 0.25, 0.5, 1, 2, 4, 8, and 24 hours after administration in orally dosing group.
# [2] = cynomolgus monkey, in vivo; for Oral F: male
# Method: (§3) Pharmacokinetic Analysis of the Compound 36, Compound 121, Compound 214, and Orforglipron in Cynomolgus Monkeys
# (§4) Non naïve male cynomolgus monkeys (n=3 monkeys/group) were fasted overnight and fed 4 hours post dose. Compounds of the present application were formulated in 10% polyethylene glycol 400/10% propylene glycol/80% glycine buffer (100 mM glycine, 64 mM NaOH, pH 10).
# (§5) The compound was administered by i.v. infusion for 30 minutes at 0.12 mg/kg (dose volume 1 mL/kg at a speed of 2 mL/kg/h) or orally doses of 0.36 mg/kg. Blood samples were collected pre-dose and 0.25, 0.5 (just before the infusion is stopped), 0.75, 1, 1.5, 2.5, 4, 8, 16, 24 hr post dose for i.v. administration group. Blood samples were also collected pre-dose, 0.5, 1, 2, 3, 4, 8, 16 and 24 hr after administration in orally dosing group.
# in vivo = details: male, cynomolgus monkey
# Method: as §3, §4, §5
# [3] = test system: Type 2 diabetic donor islets; test: Glucose-stimulated insulin secretion (GSIS) in Type 2 diabetic donor islets cultured ex vivo; format: cell-based; details: islets cultured ex vivo for 8 days (FIG. 1A) or 12 days (FIG. 1B); compared with orforglipron or DMSO
# Method: Islets from a Type 2 diabetic donor were cultured ex vivo for 8 days (FIG. 1A) or 12 days (FIG. 1B) were assayed for GSIS in the presence of compound 36 (cpd 36), orforglipron or DMSO. Basal insulin secretion, stimulated insulin secretion and secretion index were measured.
# [4] = test system: islets from a non-diabetic donor; test: Glucose-stimulated insulin secretion (GSIS) in non-diabetic donor islets cultured ex vivo; format: cell-based; details: compared with orforglipron or DMSO
# Method: Donor islets cultured ex vivo were assayed for GSIS in the presence of compound 36 (cpd 36), orforglipron or DMSO. Basal insulin secretion, stimulated insulin secretion and secretion index were measured.
# Donor islets cultured ex vivo were assayed for GSIS in the presence of compound 214, orforglipron or DMSO. Basal insulin secretion, stimulated insulin secretion and secretion index were measured.
# [5] = test system: ex-vivo cultured islets from a T2D donor; test: Glucose-Stimulated Insulin Secretion (GSIS) assay, islets from a T2D donor; format: cell-based
# Method: (§1) Glucose-Stimulated Insulin Secretion (GSIS) Assay
# (§2) Purified islets from healthy or Type 2 diabetic donors (Prodo Laboratory, Inc., Aliso Viejo, CA) were cultured in PIM(S) media (Prodo) with 8 mM or 11 mM glucose in a 37° C. water-jacketed incubator with 5% CO2. The GSIS assay followed published procedure (Zhu et al. 2015; Ho et al. 2023). Briefly, islets were conditioned in Krebs-Ringer bicarbonate buffer (KRB, 111 mM NaCl, 4.8 mM KCl, 25 mM NaHCO3, 2.3 mM CaCl2, 1.2 mM MgSO4, 0.15 mM Na2HPO4, 1.2 mM KH2PO4, 10 mM HEPES, 0.2% BSA) containing 2.8 mM glucose for 2 hours with 0.05% DMSO, compound 36 or orforglipron. Size-matched islets were used for each test condition. Islets were washed with KRB once and incubated in fresh KRB containing 2.8 mM glucose with 0.05% DMSO or corresponding compound for one hour to measure the basal insulin secretion in 2.8 mM glucose. Glucose concentration was increased to 11 mM and islets stimulated for one hour in the presence of 0.05% DMSO or corresponding compound to measure stimulated insulin secretion. Supernatants were harvested and insulin secreted under basal and glucose stimulated conditions were quantified using an ELISA kit (ALPCO, Salem, NH). Islets were lysed and genomic DNA was extracted using silicon spin column (Qiagen, Venlo, Netherlands). Insulin secretion was normalized to total genomic DNA.
# Insulin secretion index is the ratio of stimulated insulin secretion at 11 mM glucose/basal insulin secretion at 2.8 mM glucose. […] (Ho, K. H., A. Jayathilake, Y. Mahircan, A. Nour, A. B. Osipovich, M. A. Magnuson, G. Gu, and I. Kaverina. 2023. CAMSAP2 localizes to the Golgi in islet beta-cells and facilitates Golgi-ER trafficking, iScience, 26:105938.Zhu X., R. Hu, M. Brissova, R. W. Stein, A. C. Powers, G. Gu, and I. Kaverina. 2015. Microtubules Negatively Regulate Insulin Secretion in Pancreatic beta Cells, Dev Cell, 34:656-68).
# [6] = test system: ex-vivo cultured islets from a healthy donor; test: Glucose-Stimulated Insulin Secretion (GSIS) assay, islets from a healthy donor; format: cell-based; details: compared to DMSO, FIG. 2
# Method: as §1
# as §2, with “DNA. […]” for “DNA.”
# [7] = Table 1d, stereoisomer pairs, read-out: EC50
# [8] = cAMP accumulation in HEK293 expressing human GLP-1R, no BETP, 30 min room temperature (Method B1a, compounds ID 1-609), Table 1, read-out: EC50
# [9] = text to Table 1d, bridge atoms configured into the plane or away from the reader, read-out: potency (EC50)
Compound,EC50 Ratio (human GLP-1R; Table 1d),EC50 (human GLP-1R; [7]) [µM],EC50 (human GLP-1R; [8]) [µM],EC50 (human GLP-1R; [9]) [µM],Oral F [1] [%],AUC(0-inf) ([1]; 1.0 mg/kg iv) [ng·h/mL],clearance ([1]; 1.0 mg/kg iv) [mL/min/kg],half-life ([1]; 1.0 mg/kg iv) [h],Vd ([1]; 1.0 mg/kg iv) [L/kg],AUC(0-inf) ([1]; 5.0 mg/kg po) [ng·h/mL],Cmax ([1]; 5.0 mg/kg po) [ng/mL],Tmax ([1]; 5.0 mg/kg po) [h],half-life ([1]; 5.0 mg/kg po) [h],exposure compared with Orforglipron [1],Oral F [2] [%],"AUC(0-inf) (in vivo; iv, 0.12 mg/kg) [ng·h/mL]","Vd (in vivo; iv, 0.12 mg/kg) [L/kg]","clearance (in vivo; iv, 0.12 mg/kg) [mL/min/kg]","half-life (in vivo; iv, 0.12 mg/kg) [h]","AUC(0-inf) (in vivo; po, 0.36 mg/kg) [ng·h/mL]",other results
"Cc1cc(-n2nc3c(c2-n2ccn(-c4ccc5c(cnn5C)c4F)c2=O)[C@@H]2COC[C@H](C3)N2C(=O)c2cc3cc([C@H]4CCOC(C)(C)C4)ccc3n2[C@@]2(c3noc(=O)[nH]3)C[C@@H]2C)cc(C)c1F [Compound 121, 3-((1S,2S)-1-(5-((S)-2,2-dimethyltetrahydro-2H-pyran-4-yl)-2-((4R,8S)-3-(3-(4-fluoro-1-methyl-1H-indazol-5-yl)-2-oxo-2,3-dihydro-1H-imidazol-1-yl)-2-(4-fluoro-3,5-dimethylphenyl)-2,4,5,7,8,9-hexahydro-4,8-epiminooxocino [5,4-c]pyrazole-10-carbonyl)-1H-indol-1-yl)-2-methylcyclopropyl)-1,2,4-oxadiazol-5 (4H)-one]",>122,0.082,0.082,< 1,54.7,3330,5.02,3.14,1.24,9120,923,3.33,3.47,significant higher exposure,22.2,182,1.66,11.4,2.26,121,"Cmax (in vivo; po, 0.36 mg/kg): 28 ng/mL; Tmax (in vivo; po, 0.36 mg/kg): 2 h; half-life (in vivo; po, 0.36 mg/kg): 1.94 h"
"Cc1cc(-n2nc3c(c2-n2ccn(-c4ccc5c(cnn5C)c4F)c2=O)[C@@H]2CC[C@H](C3)N2C(=O)c2cc3cc([C@H]4CCOC(C)(C)C4)ccc3n2[C@@]2(c3noc(=O)[nH]3)C[C@@H]2C)cc(C)c1F [Compound 36, 3-((1S,2S)-1-(5-((S)-2,2-dimethyltetrahydro-2H-pyran-4-yl)-2-((4S,7R)-3-(3-(4-fluoro-1-methyl-1H-indazol-5-yl)-2-oxo-2,3-dihydro-1H-imidazol-1-yl)-2-(4-fluoro-3,5-dimethylphenyl)-2,4,5,6,7,8-hexahydro-4,7-epiminocyclohepta [c]pyrazole-9-carbonyl)-1H-indol-1-yl)-2-methylcyclopropyl)-1,2,4-oxadiazol-5(4H)-one]",>94,0.109,0.109,< 1,29.6,5050,3.33,5.04,1.09,7480,610,3.33,4.93,significant higher exposure,50.2,512,1.13,3.98,4.55,771,"responsiveness of Type 2 diabetic donor islets to glucose stimulation (GSIS) [3]: increases the responsiveness of Type 2 diabetic donor islets to glucose stimulation; glucose-stimulated insulin secretion in islets from a non-diabetic donor [4]: increases glucose-stimulated insulin secretion; basal insulin secretion ([5]; 2.8 mM glucose, FIG. 1A): decreased; stimulated insulin ([5]; 11 mM glucose, FIG. 1A): improved; glucose-stimulated insulin secretion (GSIS) ([5]; FIG. 1): potentiated GSIS; also recorded: overall relatively better than orforglipron; insulin secretion index ([5]; ratio of stimulated insulin secretion at 11 mM glucose/basal insulin secretion at 2.8 mM glucose, FIG. 1B): improved; insulin secretion upon glucose stimulation [6]: potentiated islets to secrete more insulin upon glucose stimulation compared to DMSO; oral bioavailability compared with Orforglipron [2]: better oral bioavailability; Cmax (in vivo; po, 0.36 mg/kg): 121 ng/mL; Tmax (in vivo; po, 0.36 mg/kg): 2 h; half-life (in vivo; po, 0.36 mg/kg): 4.22 h"
"Cc1cc(-n2nc3c(c2-n2ccn(-c4ccc5c(cnn5C)c4F)c2=O)[C@@H]2CC[C@H](C3)N2C(=O)c2cc3cc([C@H]4CCOC5(CC5)C4)ccc3n2[C@@]2(c3noc(=O)[nH]3)C[C@@H]2C)cc(C)c1F [Compound 214, 3-((1S,2S)-1-(2-((4S,7R)-3-(3-(4-fluoro-1-methyl-1H-indazol-5-yl)-2-oxo-2,3-dihydro-1H-imidazol-1-yl)-2-(4-fluoro-3,5-dimethylphenyl)-2,4,5,6,7,8-hexahydro-4,7-epiminocyclohepta [c]pyrazole-9-carbonyl)-5-((S)-4-oxaspiro[2.5]octan-7-yl)-1H-indol-1-yl)-2-methylcyclopropyl)-1,2,4-oxadiazol-5 (4H)-one]",>13,0.0523,0.0523,< 1,32.6,4640,3.68,4.83,1.08,7510,640,2.67,5.14,significant higher exposure,54.0,619,0.77,3.4,3.66,1000,"glucose-stimulated insulin secretion in islets from a non-diabetic donor [4]: increases in glucose-stimulated insulin secretion; Cmax (in vivo; po, 0.36 mg/kg): 149 ng/mL; Tmax (in vivo; po, 0.36 mg/kg): 2 h; half-life (in vivo; po, 0.36 mg/kg): 3.56 h"
